Laboratory results reported in ChEMBL document CHEMBL1208738, “Optimization of privileged structures for selective and potent melanocortin subtype-4 receptor ligands” (Bioorg Med Chem Lett, 2010).

How the values were obtained:
Melanocortin receptor 4 [1] = biological target: T1, Melanocortin receptor 4 (Homo sapiens, UniProt P32245); test: Agonist activity at human MC4 receptor expressed in CHO cells assessed as increase of alpha-MSH-induced cAMP accumulation; format: functional, cell-based
Melanocortin receptor 4 [2] = biological target: T1, Melanocortin receptor 4; test: Displacement of [125I]NDP-alpha-MSH from human MC4 receptor expressed in CHO cells; format: cell-based
Melanocortin receptor 4 [3] = biological target: T1, Melanocortin receptor 4; test: Agonist activity at human MC4 receptor expressed in CHO cells assessed as increase of alpha-MSH-induced cAMP accumulation at 10 uM relative to alpha-MSH; format: functional, cell-based
Homo sapiens [4] = species: Homo sapiens; test: Selectivity ratio of EC50 for human MC5 receptor to EC50 for human MC4 receptor
Homo sapiens [5] = species: Homo sapiens; test: Selectivity ratio of IC50 for human MC5 receptor to IC50 for human MC4 receptor
[6] = biological target: T2, Melanocyte-stimulating hormone receptor (Homo sapiens, UniProt Q01726); test: Agonist activity at human MC1 receptor expressed in CHO cells assessed as increase of alpha-MSH-induced cAMP accumulation at 10 uM relative to alpha-MSH; format: functional, cell-based
Target sequence in this assay (Q01726 whole entry, looked up): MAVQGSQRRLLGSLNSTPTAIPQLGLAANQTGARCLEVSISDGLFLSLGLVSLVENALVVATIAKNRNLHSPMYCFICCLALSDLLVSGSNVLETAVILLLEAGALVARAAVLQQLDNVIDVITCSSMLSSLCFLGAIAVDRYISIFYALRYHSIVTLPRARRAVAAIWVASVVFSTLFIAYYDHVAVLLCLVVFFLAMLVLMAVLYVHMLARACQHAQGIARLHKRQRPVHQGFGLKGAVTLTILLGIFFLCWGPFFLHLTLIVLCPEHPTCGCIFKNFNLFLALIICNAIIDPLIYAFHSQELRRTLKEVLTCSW

Homo sapiens [7] = species: Homo sapiens; test: Selectivity ratio of IC50 for human MC1 receptor to IC50 for human MC4 receptor
Melanocortin receptor 3 [8] = biological target: T3, Melanocortin receptor 3 (Homo sapiens, UniProt P41968); test: Agonist activity at human MC3 receptor expressed in CHO cells assessed as increase of alpha-MSH-induced cAMP accumulation at 10 uM relative to alpha-MSH; format: functional, cell-based
Melanocortin receptor 5 [9] = biological target: T4, Melanocortin receptor 5 (Homo sapiens, UniProt P33032); test: Agonist activity at human MC5 receptor expressed in CHO cells assessed as increase of alpha-MSH-induced cAMP accumulation at 10 uM relative to alpha-MSH; format: functional, cell-based
Homo sapiens [10] = species: Homo sapiens; test: Selectivity ratio of EC50 for human MC1 receptor to EC50 for human MC4 receptor
[11] = biological target: T2, Melanocyte-stimulating hormone receptor; test: Agonist activity at human MC1 receptor expressed in CHO cells assessed as increase of alpha-MSH-induced cAMP accumulation; format: functional, cell-based
Target sequence in this assay (Q01726 whole entry): as the sequence (Q01726 whole entry, looked up) above

Melanocortin receptor 3 [12] = biological target: T3, Melanocortin receptor 3; test: Agonist activity at human MC3 receptor expressed in CHO cells assessed as increase of alpha-MSH-induced cAMP accumulation; format: functional, cell-based
Melanocortin receptor 5 [13] = biological target: T4, Melanocortin receptor 5; test: Agonist activity at human MC5 receptor expressed in CHO cells assessed as increase of alpha-MSH-induced cAMP accumulation; format: functional, cell-based
[14] = biological target: T2, Melanocyte-stimulating hormone receptor; test: Displacement of [125I]NDP-alpha-MSH from human MC1 receptor expressed in CHO cells; format: cell-based
Target sequence in this assay (Q01726 whole entry): as the sequence (Q01726 whole entry, looked up) above

Melanocortin receptor 3 [15] = biological target: T3, Melanocortin receptor 3; test: Displacement of [125I]NDP-alpha-MSH from human MC3 receptor expressed in CHO cells; format: cell-based
Melanocortin receptor 5 [16] = biological target: T4, Melanocortin receptor 5; test: Displacement of [125I]NDP-alpha-MSH from human MC5 receptor expressed in CHO cells; format: cell-based

T3 sequence (P41968 whole entry): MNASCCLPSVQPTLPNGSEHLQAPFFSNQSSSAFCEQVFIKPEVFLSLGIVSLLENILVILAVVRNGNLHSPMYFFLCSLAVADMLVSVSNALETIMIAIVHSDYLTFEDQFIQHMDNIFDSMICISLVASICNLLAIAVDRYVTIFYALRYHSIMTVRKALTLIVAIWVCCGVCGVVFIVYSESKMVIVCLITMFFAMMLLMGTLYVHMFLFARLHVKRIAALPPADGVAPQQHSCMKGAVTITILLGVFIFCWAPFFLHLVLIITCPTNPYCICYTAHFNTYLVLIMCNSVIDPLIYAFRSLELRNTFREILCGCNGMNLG
T4 sequence (P33032 whole entry): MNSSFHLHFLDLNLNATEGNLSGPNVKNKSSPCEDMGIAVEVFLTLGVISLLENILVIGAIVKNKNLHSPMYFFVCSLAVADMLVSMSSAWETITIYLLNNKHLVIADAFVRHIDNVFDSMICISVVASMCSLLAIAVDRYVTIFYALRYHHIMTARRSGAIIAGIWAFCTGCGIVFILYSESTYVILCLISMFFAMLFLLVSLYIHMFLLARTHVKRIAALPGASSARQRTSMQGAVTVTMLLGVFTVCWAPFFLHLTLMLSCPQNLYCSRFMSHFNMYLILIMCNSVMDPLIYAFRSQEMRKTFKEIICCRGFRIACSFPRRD
T1 sequence (P32245 whole entry): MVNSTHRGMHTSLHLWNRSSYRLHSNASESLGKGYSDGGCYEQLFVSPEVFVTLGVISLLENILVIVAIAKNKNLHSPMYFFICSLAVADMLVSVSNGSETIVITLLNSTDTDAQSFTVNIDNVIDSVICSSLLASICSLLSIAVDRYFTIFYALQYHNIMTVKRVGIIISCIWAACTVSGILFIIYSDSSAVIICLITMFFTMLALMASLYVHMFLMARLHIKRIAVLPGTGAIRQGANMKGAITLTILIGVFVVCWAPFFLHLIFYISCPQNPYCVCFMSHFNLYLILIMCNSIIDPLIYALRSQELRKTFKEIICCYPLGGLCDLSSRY

SMILES | EC50 (Melanocortin receptor 4 [1]) | IC50 (Melanocortin receptor 4 [2]) | Activity (Melanocortin receptor 4 [3]) | further results
CC(=O)N(CC(CC(C)C)N1CCN(C(=O)[C@@H]2CN(C(C)(C)C)C[C@H]2c2ccc(F)cc2F)CC1)C(C)C (single isomer, unassigned; diastereomer 1) [listing 1 of 2 here] | 29 nM | 49 nM |  | 
CC(=O)N(CC(CC(C)C)N1CCN(C(=O)[C@@H]2CN(C(C)(C)C)C[C@H]2c2ccc(F)cc2F)CC1)C(C)C (single isomer, unassigned; diastereomer 2) [listing 1 of 2 here] | 9.7 nM | 23 nM |  | EC50 [11]: 560 nM; EC50 (Melanocortin receptor 3 [12]): 880 nM; EC50 (Melanocortin receptor 5 [13]): > 5000 nM; IC50 [14]: 3600 nM; IC50 (Melanocortin receptor 3 [15]): 4700 nM; IC50 (Melanocortin receptor 5 [16]): 1100 nM
CC(C)N(CC(N1CCN(C(=O)[C@@H]2CN(C(C)(C)C)C[C@H]2c2ccc(F)cc2F)CC1)C(C)(C)C)S(C)(=O)=O (stereo in doubt; 27B) [listing 1 of 2 here] |  |  | 102% | 
CC(=O)N(CC(CC(C)C)N1CCN(C(=O)[C@@H]2CN(C(C)(C)C)C[C@H]2c2ccc(F)cc2F)CC1)C(C)C (single isomer, unassigned; diastereomer 1) [listing 2 of 2 here] |  |  | 101% | 
CC(=O)N(CC(N1CCN(C(=O)[C@@H]2CN(C(C)(C)C)C[C@H]2c2ccc(F)cc2F)CC1)C(C)(C)C)C(C)C (single isomer, unassigned; diastereomer 2) [listing 1 of 2 here] | 180 nM | 150 nM |  | 
CC(=O)N(CC(N1CCN(C(=O)[C@@H]2CN(C(C)(C)C)C[C@H]2c2ccc(F)cc2F)CC1)C(C)(C)C)C(C)C (single isomer, unassigned; diastereomer 2) [listing 2 of 2 here] |  |  | 94% | 
CC(=O)N(CC(CC(C)C)N1CCN(C(=O)[C@@H]2CN(C(C)(C)C)C[C@H]2c2ccc(F)cc2F)CC1)C(C)C (single isomer, unassigned; diastereomer 2) [listing 2 of 2 here] |  |  | 113% | Ratio EC50 (Homo sapiens [4]): 20; Ratio IC50 (Homo sapiens [5]): 20; Activity [6]: 77%; Ratio IC50 (Homo sapiens [7]): 20; Activity (Melanocortin receptor 3 [8]): 109%; Activity (Melanocortin receptor 5 [9]): 56%; Ratio EC50 (Homo sapiens [10]): 20
CC(C)N(CC(N1CCN(C(=O)[C@@H]2CN(C(C)(C)C)C[C@H]2c2ccc(F)cc2F)CC1)C(C)(C)C)S(C)(=O)=O (stereo in doubt; 27B) [listing 2 of 2 here] | 44 nM | 46 nM |  | 
CC(=O)N(CC(N1CCN(C(=O)[C@@H]2CN(C(C)(C)C)C[C@H]2c2ccc(F)cc2F)CC1)C(C)(C)C)C(C)C (single isomer, unassigned; diastereomer 1) [listing 1 of 2 here] |  |  | 89% | 
CC(=O)N(CC(N1CCN(C(=O)[C@@H]2CN(C(C)(C)C)C[C@H]2c2ccc(F)cc2F)CC1)C(C)(C)C)C(C)C (single isomer, unassigned; diastereomer 1) [listing 2 of 2 here] |  |  |  | EC50 (Melanocortin receptor 4 [1]; cho): 180 nM; IC50 (Melanocortin receptor 4 [2]; cho): 150 nM
CC(C)CC(CN(C(C)C)S(C)(=O)=O)N1CCN(C(=O)[C@@H]2CN(C(C)(C)C)C[C@H]2c2ccc(F)cc2F)CC1 (single isomer, unassigned; diastereomer 1) [listing 1 of 2 here] | 47 nM | 88 nM |  | 
CC(C)CC(CN(C(C)C)S(C)(=O)=O)N1CCN(C(=O)[C@@H]2CN(C(C)(C)C)C[C@H]2c2ccc(F)cc2F)CC1 (single isomer, unassigned; diastereomer 1) [listing 2 of 2 here] |  |  | 117% | 
CC(C)CC(CN(C(C)C)S(C)(=O)=O)N1CCN(C(=O)[C@@H]2CN(C(C)(C)C)C[C@H]2c2ccc(F)cc2F)CC1 (single isomer, unassigned; diastereomer 2) | 19 nM | 27 nM |  | EC50 [11]: > 5000 nM; EC50 (Melanocortin receptor 3 [12]): 2500 nM; EC50 (Melanocortin receptor 5 [13]): > 5000 nM; IC50 [14]: 5000 nM; IC50 (Melanocortin receptor 3 [15]): 4900 nM; IC50 (Melanocortin receptor 5 [16]): 2800 nM
CC(C)N(CC(N1CCN(C(=O)[C@@H]2CN(C(C)(C)C)C[C@H]2c2ccc(F)cc2F)CC1)C(C)(C)C)S(C)(=O)=O (stereo in doubt; 27A) [listing 1 of 2 here] |  |  | 88% | 
CC(C)N(CC(N1CCN(C(=O)[C@@H]2CN(C(C)(C)C)C[C@H]2c2ccc(F)cc2F)CC1)C(C)(C)C)S(C)(=O)=O (stereo in doubt; 27A) [listing 2 of 2 here] | 19 nM | 53 nM |  | 

Continued, in another order:

EC50 (Melanocortin receptor 4 [1]) | IC50 (Melanocortin receptor 4 [2]) | Activity (Melanocortin receptor 4 [3]) | SMILES | further results
 |  | 106% | CC(C)N(CC(C1CCCCC1)N1CCN(C(=O)[C@@H]2CN(C(C)(C)C)C[C@H]2c2ccc(F)cc2F)CC1)C(=O)c1cnn(C(C)C)c1 (single isomer, unassigned; diastereomer 1) [listing 1 of 2 here] | Ratio EC50 (Homo sapiens [4]): 20; Ratio IC50 (Homo sapiens [5]): 20; Activity [6]: 60%; Ratio IC50 (Homo sapiens [7]): 20; Activity (Melanocortin receptor 3 [8]): 102%; Activity (Melanocortin receptor 5 [9]): 62%; Ratio EC50 (Homo sapiens [10]): 20
6.4 nM | 18 nM |  | CC(C)N(CC(C1CCCCC1)N1CCN(C(=O)[C@@H]2CN(C(C)(C)C)C[C@H]2c2ccc(F)cc2F)CC1)C(=O)c1cnn(C(C)C)c1 (single isomer, unassigned; diastereomer 1) [listing 2 of 2 here] | EC50 [11]: 520 nM; EC50 (Melanocortin receptor 3 [12]): 79 nM; EC50 (Melanocortin receptor 5 [13]): 1000 nM; IC50 [14]: 730 nM; IC50 (Melanocortin receptor 3 [15]): 870 nM; IC50 (Melanocortin receptor 5 [16]): 620 nM
19 nM | 62 nM |  | CC(C)N(CC(C1CCCCC1)N1CCN(C(=O)[C@@H]2CN(C(C)(C)C)C[C@H]2c2ccc(F)cc2F)CC1)C(=O)c1cnn(C(C)C)c1 (single isomer, unassigned; diastereomer 2) [listing 1 of 2 here] | 
5.4 nM | 18 nM |  | CC(C)N(CC(C1CCCCC1)N1CCN(C(=O)[C@@H]2CN(C(C)(C)C)C[C@H]2c2ccc(F)cc2F)CC1)C(=O)c1cccnn1 (single isomer, unassigned; diastereomer 1) [listing 1 of 2 here] | EC50 [11]: 1200 nM; EC50 (Melanocortin receptor 3 [12]): 90 nM; EC50 (Melanocortin receptor 5 [13]): 490 nM; IC50 [14]: 1900 nM; IC50 (Melanocortin receptor 3 [15]): 770 nM; IC50 (Melanocortin receptor 5 [16]): 130 nM
 |  | 114% | CC(C)N(CC(C1CCCCC1)N1CCN(C(=O)[C@@H]2CN(C(C)(C)C)C[C@H]2c2ccc(F)cc2F)CC1)S(C)(=O)=O (single isomer, unassigned; diastereomer 1) [listing 1 of 2 here] | 
 |  | 98% | CC(C)N(CC(C1CCCCC1)N1CCN(C(=O)[C@@H]2CN(C(C)(C)C)C[C@H]2c2ccc(F)cc2F)CC1)C(=O)c1ncccn1 (single isomer, unassigned; diastereomer 1) | 
6700 nM | 1900 nM | 10% | CC(C)CN(CC(C)C)CC(C1CCCCC1)N1CCN(C(=O)[C@@H]2CN(C(C)(C)C)C[C@H]2c2ccc(F)cc2F)CC1 (stereo partly drawn) | 
 |  | 99% | CC(C)N(CC(C1CCCCC1)N1CCN(C(=O)[C@@H]2CN(C(C)(C)C)C[C@H]2c2ccc(F)cc2F)CC1)C(=O)c1cccnn1 (single isomer, unassigned; diastereomer 2) [listing 1 of 2 here] | 
 |  | 102% | CC(C)N(CC(C1CCCCC1)N1CCN(C(=O)[C@@H]2CN(C(C)(C)C)C[C@H]2c2ccc(F)cc2F)CC1)C(=O)c1cccnn1 (single isomer, unassigned; diastereomer 1) [listing 2 of 2 here] | Activity [6]: 58%; Activity (Melanocortin receptor 3 [8]): 108%; Activity (Melanocortin receptor 5 [9]): 68%
 |  | 117% | CC(C)N(CC(C1CCCCC1)N1CCN(C(=O)[C@@H]2CN(C(C)(C)C)C[C@H]2c2ccc(F)cc2F)CC1)S(C)(=O)=O (single isomer, unassigned; diastereomer 2) | Ratio EC50 (Homo sapiens [4]): 20; Ratio IC50 (Homo sapiens [5]): 20; Activity [6]: 63%; Ratio IC50 (Homo sapiens [7]): 20; Activity (Melanocortin receptor 3 [8]): 94%; Activity (Melanocortin receptor 5 [9]): 57%; Ratio EC50 (Homo sapiens [10]): 20
 |  | 88% | CC(C)N(CC(C1CCCCC1)N1CCN(C(=O)[C@@H]2CN(C(C)(C)C)C[C@H]2c2ccc(F)cc2F)CC1)C(=O)c1ncccn1 (stereo in doubt; 22B) [listing 1 of 2 here] | 
240 nM | 310 nM | 95% | CC(C)NCC(C1CCCCC1)N1CCN(C(=O)[C@@H]2CN(C(C)(C)C)C[C@H]2c2ccc(F)cc2F)CC1 (stereo partly drawn) | 
25 nM | 15 nM |  | CC(C)N(CC(C1CCCCC1)N1CCN(C(=O)[C@@H]2CN(C(C)(C)C)C[C@H]2c2ccc(F)cc2F)CC1)S(C)(=O)=O (single isomer, unassigned; diastereomer 1) [listing 2 of 2 here] | 
9.1 nM | 64 nM |  | CC(C)N(CC(C1CCCCC1)N1CCN(C(=O)[C@@H]2CN(C(C)(C)C)C[C@H]2c2ccc(F)cc2F)CC1)C(=O)c1cccnn1 (single isomer, unassigned; diastereomer 2) [listing 2 of 2 here] | 
50 nM | 29 nM |  | CC(=O)N(CC(C1CCCCC1)N1CCN(C(=O)[C@@H]2CN(C(C)(C)C)C[C@H]2c2ccc(F)cc2F)CC1)C(C)C (single isomer, unassigned; diastereomer 1) [listing 1 of 2 here] | 
 |  | 81% | CC(C)N(CC(C1CCCCC1)N1CCN(C(=O)[C@@H]2CN(C(C)(C)C)C[C@H]2c2ccc(F)cc2F)CC1)C(=O)c1cnn(C(C)C)c1 (single isomer, unassigned; diastereomer 2) [listing 2 of 2 here] | 
 |  | 134% | CC(=O)N(CC(C1CCCCC1)N1CCN(C(=O)[C@@H]2CN(C(C)(C)C)C[C@H]2c2ccc(F)cc2F)CC1)C(C)C (single isomer, unassigned; diastereomer 1) [listing 2 of 2 here] | 
710 nM | 200 nM | 97% | CCCN(CCC)CC(C1CCCCC1)N1CCN(C(=O)[C@@H]2CN(C(C)(C)C)C[C@H]2c2ccc(F)cc2F)CC1 (stereo partly drawn) | 
15 nM | 130 nM |  | CC(C)N(CC(C1CCCCC1)N1CCN(C(=O)[C@@H]2CN(C(C)(C)C)C[C@H]2c2ccc(F)cc2F)CC1)C(=O)c1ncccn1 (stereo in doubt; 22B) [listing 2 of 2 here] | 
